Experimental data as given in patent US9951046B2, “TRPA1 modulators” (Algomedix, Inc., priority 2014, dated 2018).
Like-named read-outs stand apart in the source and are kept apart here.

Target: T1, human TRPA1 (Homo sapiens, UniProt O75762)
T1 construct: expressed in transfected cells
Assay: Cell-based functional intracellular calcium ([Ca2+]i) assay, Fluo-4/Fluo-8, FlexStation, challenge with reference TRPA1 agonist (FFA, AITC or 4-HNE)
Description: A stable HEK293 cell line that expresses human TRPA1 in an inducible manner was employed in this assay. […] The expression of TRPA1 was induced by including 1 μg/ml doxycycline in the culture medium. For the induced cells, ruthenium red (5 μM) was also added to minimize the constitutive TRPA1 channel activity and cells were used 14-18 hrs after induction. To measure [Ca^2+]i changes, cells were seeded in wells of 96-well plates at ˜100,000 cells/well and grown for 14-18 hrs to reach confluency. To prevent cell loss from subsequent washing, the wells were treated with 20 μg/ml polyornithine (MW>30,000, Sigma, St Louis, Mo.) for >15 min and rinsed once with Hank's balanced salt solution without Mg^2+ and Ca^2+. […] In some experiments, Fluo-8-AM was used instead of Fluo-4-AM as the calcium-sensitive fluorescent probe. Probenecid (2 mM) was included in all solutions to prevent the leakage of Fluo-4 or Fluo-8 from the cells. At the end of the incubation, cells were washed three times with ECS and placed in 80 μL of the same solution. Fluorescence changes were measured using a fluid handling integrated fluorescence plate reader, FlexStation (Molecular Devices, Sunnyvale, Calif.). Stock solutions of test compounds were initially solubilized in 100% DMSO and then serially diluted to achieve the desired final concentration. […] Drugs were diluted into ECS at 2× or 3× the desired final concentrations and delivered to the sample plate by an integrated robotic 8-channel pipettor at preprogrammed time points. […] Experiments were performed at 20-25° C. For certain experiments, 0.1% BSA was included with the cells and test compounds.
The kinetic data obtained at each test concentration of drug represents a series of fluorescent intensities as a function of time.
Using a sequential addition protocol, test compounds were initially applied to the cells loaded with Fluo-4 or Fluo-8 and fluorescence changes in each well monitored for 2.5 min. The plate was read again in a kinetic mode after a 15-30 min incubation with the test compounds after obtaining baseline values (about 30 s) and subsequent addition of challenge with a reference TRPA1 agonist. Reference TRPA1 agonists in testing each compound included at least one of flufenamic acid (FFA), allyl isothiocyanate (AITC) and 4-hydroxynonenal (4-HNE).
Antagonist activity can be expressed in terms of IC50 with respect to TRPA1 and agonist activity can be expressed in terms of EC50 with respect to TRPA1.

[1] = HEK293 cells expressing human TRPA1, IC50 class after addition of reference TRPA1 agonist (FFA, AITC or 4-HNE), read-out: human TRPA1-HEK Activity

T1 sequence (O75762 whole entry): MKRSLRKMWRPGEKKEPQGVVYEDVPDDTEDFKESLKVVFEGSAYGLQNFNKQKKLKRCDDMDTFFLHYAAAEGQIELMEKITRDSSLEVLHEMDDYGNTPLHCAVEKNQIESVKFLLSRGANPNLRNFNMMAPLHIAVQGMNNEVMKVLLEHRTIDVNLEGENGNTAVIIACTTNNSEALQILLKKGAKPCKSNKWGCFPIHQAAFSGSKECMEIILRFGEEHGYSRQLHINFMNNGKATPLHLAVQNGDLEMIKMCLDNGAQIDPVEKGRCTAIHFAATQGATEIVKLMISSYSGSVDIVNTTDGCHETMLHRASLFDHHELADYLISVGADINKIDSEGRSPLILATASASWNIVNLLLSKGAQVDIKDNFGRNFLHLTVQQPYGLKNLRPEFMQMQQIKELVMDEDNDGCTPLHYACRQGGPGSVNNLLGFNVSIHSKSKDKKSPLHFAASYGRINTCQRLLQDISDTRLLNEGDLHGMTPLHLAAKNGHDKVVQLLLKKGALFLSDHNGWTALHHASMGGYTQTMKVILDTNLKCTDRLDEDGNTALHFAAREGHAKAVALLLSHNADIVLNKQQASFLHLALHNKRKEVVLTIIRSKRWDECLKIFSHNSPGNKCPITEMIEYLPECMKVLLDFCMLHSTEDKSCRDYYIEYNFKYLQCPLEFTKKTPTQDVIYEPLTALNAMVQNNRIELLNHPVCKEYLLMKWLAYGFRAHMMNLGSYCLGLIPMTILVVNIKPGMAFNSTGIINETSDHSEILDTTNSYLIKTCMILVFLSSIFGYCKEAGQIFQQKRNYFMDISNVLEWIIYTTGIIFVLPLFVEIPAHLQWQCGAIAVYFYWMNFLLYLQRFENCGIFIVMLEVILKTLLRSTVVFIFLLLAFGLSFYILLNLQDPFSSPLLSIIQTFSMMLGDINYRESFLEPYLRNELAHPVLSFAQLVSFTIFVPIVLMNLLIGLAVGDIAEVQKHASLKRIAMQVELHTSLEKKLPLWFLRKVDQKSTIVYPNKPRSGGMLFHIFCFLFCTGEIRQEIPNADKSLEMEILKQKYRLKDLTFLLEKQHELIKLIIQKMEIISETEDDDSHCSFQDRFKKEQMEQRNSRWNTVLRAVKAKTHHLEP

Compound | IC50 [1] [µM] | IC50 [µM]
O=C(c1cc(-c2ccncc2)n(-c2ccccc2)n1)N1CCC2(CCCC2)CC1 [Compound 4] | > 25 | –
O=C(c1cc(-c2ccncc2)n(-c2ccccc2)n1)N1CC2(CCCC2)C1 [Compound 6] | > 25 | –
O=C(c1cc(-c2ccncc2)n(-c2ccccc2)n1)N1CCC2(CC1)C(=O)NCN2c1ccccc1 [Compound 8] | 5 to 25 | –
O=C(c1cc(-c2ccncc2)n(-c2ccccc2)n1)N1CCC2(CCCO2)CC1 [Compound 12] | > 25 | –
O=C(c1cc(-c2ccncc2)n(-c2ccccc2)n1)N1CCC2(CCNC2=O)CC1 [Compound 13] | > 25 | –
O=C(c1cc(-c2ccncc2)n(-c2ccccc2)n1)N1CCC2(CC1)CC(F)(F)CO2 [Compound 16] | 5 to 25 | –
O=C(c1cc(-c2ccncc2)n(-c2ccccc2)n1)N1CCC(n2c(=O)[nH]c3ccccc32)CC1 [Compound 25] | > 25 | –
N#CC1(c2ccccc2)CCN(C(=O)c2cc(-c3ccncc3)n(-c3ccccc3)n2)CC1 [Compound 28] | > 25 | –
O=C1NC(=O)C2(CCN(C(=O)c3cc(-c4ccncc4)n(-c4ccccc4)n3)CC2)N1 [Compound 30] | > 25 | –
O=C(c1cc(-c2ccncc2)n(-c2ccccc2)n1)N1CCC2(CC1)OCCO2 [Compound 31] | – | > 25
O=C(c1cc(-c2ccncc2)n(-c2ccccc2)n1)N1CCN(c2ccc(C(F)(F)F)cn2)CC1 [Compound 32] | > 25 | –
O=C(c1cc(-c2ccncc2)n(-c2ccccc2)n1)N1CCN(c2cc(C(F)(F)F)cc(C(F)(F)F)c2)CC1 [Compound 33] | > 25 | –
O=C(c1cc(-c2ccncc2)n(-c2ccccc2)n1)N1CCN(c2ncccc2C(F)(F)F)CC1 [Compound 34] | > 25 | –
O=C(Nc1nc(-c2ccc(C(F)(F)F)cc2)cs1)c1cc(-c2ccncc2)n(-c2ccccc2)n1 [Compound 35] | > 25 | –
O=C(Nc1nc(-c2ccc(F)c(C(F)(F)F)c2)cs1)c1cc(-c2ccncc2)n(-c2ccccc2)n1 [Compound 37] | > 25 | –
O=C(Nc1ccc2[nH]c(=O)oc(=O)c2c1)c1cc(-c2ccncc2)n(-c2ccccc2)n1 [Compound 38] | 5 to 25 | –
Cn1c(=O)oc2ccc(NC(=O)c3cc(-c4ccncc4)n(-c4ccccc4)n3)cc21 [Compound 39] | > 25 | –
CN1C(=O)c2ccc(NC(=O)c3cc(-c4ccncc4)n(-c4ccccc4)n3)cc2C1=O [Compound 40] | > 25 | –
O=C(c1cc(-c2cccnc2)n(-c2ccc(C(F)(F)F)cc2)n1)N1CCC2(CC1)C(=O)NCN2c1ccc(F)cc1 [Compound 49] | 0.001 to 5 | –
Cc1cnc(-c2cc(C(=O)N3CCC4(CC3)C(=O)NCN4c3ccc(F)cc3)nn2-c2ccc(C(F)(F)F)cc2)c(C)n1 [Compound 52] | > 25 | –
O=C(c1cc(-c2ccncc2)n(-c2ccc(C(F)(F)F)cc2)n1)N1CCC(N2C(=O)Cc3ccccc32)CC1 [Compound 54] | – | > 25
O=C(c1cc(-c2ccncc2)n(-c2ccc(C(F)(F)F)cc2)n1)N1CCC2(CC1)C(=O)NCN2c1ccc(F)cc1 [Compound 55] | 0.001 to 5 | –
O=C(c1cc(-c2ccncc2)n(-c2ccc(C(F)(F)F)cc2)n1)N1CCC2(CC1)C(=O)NCN2c1ccc(Cl)cc1 [Compound 56] | > 25 | –
O=C(c1cc(-c2ccncc2)n(-c2ccc(C(F)(F)F)cc2)n1)N1CCC2(CC1)OCc1ccccc12 [Compound 57] | > 25 | –
O=C1OC2(CCN(C(=O)c3cc(-c4ccncc4)n(-c4ccc(C(F)(F)F)cc4)n3)CC2)c2ccccc21 [Compound 58] | > 25 | –
O=C(c1cc(-c2ccncc2)n(-c2ccc(C(F)(F)F)cc2)n1)N1CC(=O)N2CCc3ccccc3C2C1 (stereo not shown) [Compound 60] | 5 to 25 | –

Compound | IC50 [1] [µM] | IC50 [µM]
Cn1c(=O)n(C2CCN(C(=O)c3cc(-c4ccncc4)n(-c4ccc(C(F)(F)F)cc4)n3)CC2)c2ccccc21 [Compound 61] | > 25 | –
O=C(c1cc(-c2ccncc2)n(-c2ccc(C(F)(F)F)cc2)n1)N1CCC(N2C(=O)OC[C@H]2c2ccccc2)CC1 [Compound 62] | > 25 | –
O=C(c1cc(-c2ccncc2)n(-c2ccc(C(F)(F)F)cc2)n1)N1CCC2(CC1)SCCS2 [Compound 63] | > 25 | –
O=C(c1cc(-c2ccncc2)n(-c2ccc(C(F)(F)F)cc2)n1)N1CCC(c2nc3ccccc3o2)CC1 [Compound 65] | > 25 | –
O=C(Nc1ccc2c(c1)OC(F)(F)O2)c1cc(-c2ccncc2)n(-c2ccc(C(F)(F)F)cc2)n1 [Compound 66] | > 25 | –
CN1C(=O)COc2cc(NC(=O)c3cc(-c4ccncc4)n(-c4ccc(C(F)(F)F)cc4)n3)ccc21 [Compound 67] | > 25 | –
O=C1CSC2(CCN(C(=O)c3cc(-c4ccncc4)n(-c4ccc(C(F)(F)F)cc4)n3)CC2)N1 [Compound 68] | > 25 | –
Cn1c(=O)c(=O)n(C)c2cc(NC(=O)c3cc(-c4ccncc4)n(-c4ccc(C(F)(F)F)cc4)n3)ccc21 [Compound 69] | > 25 | –
O=C(Nc1ccc2c(c1)COC2=O)c1cc(-c2ccncc2)n(-c2ccc(C(F)(F)F)cc2)n1 [Compound 70] | 5 to 25 | –
CC1COC2(CCN(C(=O)c3cc(-c4ccncc4)n(-c4ccc(C(F)(F)F)cc4)n3)CC2)O1 (stereo not shown) [Compound 71] | – | > 25
O=C(c1cc(-c2ccncc2)n(-c2ccc(C(F)(F)F)cc2)n1)N1CCN2C(=O)OC[C@@H]2C1 [Compound 72] | 5 to 25 | –
O=C(c1cc(-c2ccncc2)n(-c2ccc(C(F)(F)F)cc2)n1)N1CCC2(CC1)NCN(c1ccccc1)C2=O [Compound 73] | > 25 | –
CCCC1COC2(CCN(C(=O)c3cc(-c4ccncc4)n(-c4ccc(C(F)(F)F)cc4)n3)CC2)O1 (stereo not shown) [Compound 74] | – | > 25
CN1C(=O)NC2(CCN(C(=O)c3cc(-c4ccncc4)n(-c4ccc(C(F)(F)F)cc4)n3)CC2)C1=O [Compound 75] | > 25 | –
O=C(c1cc(-c2ccncc2)n(-c2ccc(F)c(F)c2)n1)N1CCC(N2C(=O)Cc3ccccc32)CC1 [Compound 76] | – | > 25
O=C(c1cc(-c2ccncc2)n(-c2ccc(F)c(F)c2)n1)N1CCC2(CC1)C(=O)NCN2c1ccc(Cl)cc1 [Compound 78] | > 25 | –
O=C(c1cc(-c2ccncc2)n(-c2ccc(F)c(F)c2)n1)N1CCC2(CC1)OCc1ccccc12 [Compound 79] | > 25 | –
O=C1OC2(CCN(C(=O)c3cc(-c4ccncc4)n(-c4ccc(F)c(F)c4)n3)CC2)c2ccccc21 [Compound 80] | > 25 | –
O=C(c1cc(-c2ccncc2)n(-c2ccc(F)c(F)c2)n1)N1CC(=O)N2CCc3ccccc3C2C1 (stereo not shown) [Compound 82] | > 25 | –
Cn1c(=O)n(C2CCN(C(=O)c3cc(-c4ccncc4)n(-c4ccc(F)c(F)c4)n3)CC2)c2ccccc21 [Compound 83] | > 25 | –
O=C(c1cc(-c2ccncc2)n(-c2ccc(F)c(F)c2)n1)N1CCC(N2C(=O)OC[C@H]2c2ccccc2)CC1 [Compound 84] | > 25 | –
O=C(c1cc(-c2ccncc2)n(-c2ccc(F)c(F)c2)n1)N1CCC2(CC1)SCCS2 [Compound 85] | > 25 | –
O=C(c1cc(-c2ccncc2)n(-c2ccc(F)c(F)c2)n1)N1CCC(c2nc3ccccc3o2)CC1 [Compound 87] | > 25 | –
O=C(Nc1ccc2c(c1)OC(F)(F)O2)c1cc(-c2ccncc2)n(-c2ccc(F)c(F)c2)n1 [Compound 88] | 5 to 25 | –
CN1C(=O)COc2cc(NC(=O)c3cc(-c4ccncc4)n(-c4ccc(F)c(F)c4)n3)ccc21 [Compound 89] | > 25 | –
O=C1CSC2(CCN(C(=O)c3cc(-c4ccncc4)n(-c4ccc(F)c(F)c4)n3)CC2)N1 [Compound 90] | > 25 | –
